Assay results: patent US9261497B2, “Method of treating cancer with modulators of SCFSkp2” (New York University, priority 2012, dated 2016)

How the values were obtained:
[1] = target: T1, His-6Skp1-Skp2-Cks1 (Homo sapiens, UniProt P61024+Q13309); assay: Differential scanning fluorimetry (protein melt); assay type: binding; settings: compound 75 μM; protein 1.5 μM
T1 construct: His6-tagged human Skp2 (residues 89-424); Human full-length Cks1 was produced as described; made in house
Procedure: Protein melt assays were carried out following the manufacturer's protocol on the LightCycler 480 System II (Roche) using Sypro Orange dye (Sigma). Fluorescence (465 nm excitation/580 nm detection) was acquired (10 data points/sec) at a ramp rate of 0.06° C./sec between 20° C. and 85° C. Melting temperatures were calculated using the LightCycler 480 Protein Melt analysis tool (Roche).

[2] = test system: KSM-11; assay: Viable cells, multiple myeloma KSM-11; assay type: cell-based, human; settings: 24 hours
Procedure: (§1) Viable and metabolically active cells were assayed using CellTiter-Blue (Promega) or PrestoBlue (Invitrogen) following manufacturer's instruction. In a 96 well plate format, 15×10^3 cells were pretreated with 0.1% Vehicle or increasing concentration of inhibitors as noted (for 16 h, 24 h, 48 h, and/or 72 hr) and fluorescence was detected on the SpectraMax M2e (Molecular Devices) after 30 min incubation with dye.

[3] = test system: ARP-1; assay: Viable cells, multiple myeloma ARP-1; assay type: cell-based, human; settings: 24 hours
Procedure: as §1

[4] = test system: JeKo-1; assay: Cell viability, JeKo-1 mantle cell lymphoma; assay type: cell-based, human; settings: 24 hours, CalcuSyn
Procedure: as §1

[5] = test system: MCF-7; assay: Viable and metabolically active cells, MCF-7; assay type: cell-based, human; settings: 16 h
Procedure: as §1

[6] = test system: LNCaP; assay: Cell cycle FACS analysis, LNCaP; assay type: cell-based, human; settings: 10 μM for 16 hours
Procedure: Whole cell extracts were prepared and immunoblotted as previously described Dorrello et al., “S6K1- and betaTRCP-mediated Degradation of PDCD4 Promotes Protein Translation and Cell Growth,” Science 314:467-471 (2006), which is hereby incorporated by reference in its entirety. For knockdown of Skp2 or p27, shRNAs were induced with 2 ng/ml doxycycline for 48 hours, with the last 16 hours co-treated with 0.1% Vehicle or 10 μM inhibitors as indicated. For cycloheximide chase, cells were pretreated 16 h with 0.1% Vehicle or 10 μM inhibitors, followed by 20 ng/ml cycloheximide (Sigma) and whole cell extracts collected for each time point. […] Scanning densitometry was performed on immunoblots using Image J software. For cell cycle analysis, cells were treated with 0.1% Vehicle or 10 μM inhibitors for 16 h. 1×10^6 cells were fixed in 70% ethanol for 2 h, treated with 200 μg/ml RNase A (Invitrogen) for 30 minutes, and stained with 20 μg/ml Propidium Iodine (Sigma). All samples were assayed in triplicates. Signal was detected using the Becton Dickson LSRII flow cytometer and cell cycle profiles were analyzed with FloJo.

[7] = test system: ECC-1 cells; assay: ECC-1 cell proliferation (MTS assay); assay type: cell-based, human; settings: for Inhibition of cellular proliferation over the Vehicle control: 10 μM (FIG. 13A); for Blocking E2-induced proliferation: compound plus E2 (FIG. 14D)
[8] = target: T2, His6-Skp2-Skp1-Cks1 complex (Homo sapiens, UniProt P61024+Q13309); assay: Surface plasmon resonance (SPR); assay type: binding; settings: 1:1 interaction model; 25° C.
T2 construct: His6-tagged human Skp2 (residues 89-424); Human full-length Cks1 was produced as described; made in house
T2 sequence (Q13309 89-424 limits assumed): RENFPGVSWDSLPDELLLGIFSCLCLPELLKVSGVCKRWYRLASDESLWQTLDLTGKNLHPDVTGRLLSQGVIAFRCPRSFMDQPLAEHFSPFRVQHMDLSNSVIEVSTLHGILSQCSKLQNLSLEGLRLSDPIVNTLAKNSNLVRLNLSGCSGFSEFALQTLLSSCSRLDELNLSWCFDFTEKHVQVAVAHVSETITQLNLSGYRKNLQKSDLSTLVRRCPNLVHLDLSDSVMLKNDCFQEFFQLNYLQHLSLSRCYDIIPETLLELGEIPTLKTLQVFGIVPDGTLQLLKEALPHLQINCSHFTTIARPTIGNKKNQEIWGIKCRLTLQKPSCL
T2 sequence (P61024 whole entry, the tested form may be a part): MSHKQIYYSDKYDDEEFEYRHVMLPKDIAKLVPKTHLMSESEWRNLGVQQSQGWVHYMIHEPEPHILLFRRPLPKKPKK

T1 sequence (Q13309 89-424 limits assumed): as the sequence (Q13309 89-424 limits assumed) above
T1 sequence (P61024 whole entry, the tested form may be a part): as the sequence (P61024 whole entry, the tested form may be a part) above

Row | Shift of melting temperature (Tm) of purified protein complex [1] | IC50 [2] | IC50 [3] | Compound | IC50 [4] | Rate of active cells [5] | G1 cells [6] | S phase cells [6] | Inhibition of cellular proliferation over the Vehicle control [7] | EC50 ([7]; Hillslope method, read-out: EC50 inhibiting proliferation) | Blocking E2-induced proliferation [7] | Kd [8]
1 | shifted the melting temperature | 1.84 µM | 3.84 µM | O=C(O)COc1ccc(Br)cc1C=C1SC(=S)N(Cc2cccnc2)C1=O [Compound C1] | 4.8 µM | a lower rate of active cells | – | – | – | – | – | –
2 | – | – | – | COC(=O)C1=C(C)N(c2ccc(Br)cc2)C(=O)C1=Cc1ccccc1O [Compound C2] | 9.3 µM | – | a mild, but significant, increase in G1 cells | a reduction in S phase cells | 33% | 14.3 µM | equal to the effect of blocking ER activation with ICI 182,780 | –
3 | – | – | – | O=C(NN=Cc1cc(Br)cc(Br)c1O)C(=Cc1ccccc1O)NC(=O)c1ccccc1 [Compound C20] | – | – | – | – | 30% | – | equal to the effect of blocking ER activation with ICI 182,780 | 47 ± 14 µM
